Legend:
Liver microsome [1] = assay: Drug metabolism in dog liver microsomes assessed as ER-879123 formation at 10 uM after 60 mins in presence of NADH and FMO1 and FMO3 substrate/inhibitor methimazole by LC-MS/MS method; format: ADME, Canis lupus familiaris; settings: 1 h
[2] = biological target: T1, Flavin-containing monooxygenase 5 (Homo sapiens, UniProt P49326); assay: Drug metabolism assessed as human recombinant FMO5-mediated ER-879123 formation at 10 uM after 60 mins by LC-MS/MS method in presence of NADPH; format: ADME; settings: recombinant enzyme, 1 h
T1 sequence (P49326 whole entry): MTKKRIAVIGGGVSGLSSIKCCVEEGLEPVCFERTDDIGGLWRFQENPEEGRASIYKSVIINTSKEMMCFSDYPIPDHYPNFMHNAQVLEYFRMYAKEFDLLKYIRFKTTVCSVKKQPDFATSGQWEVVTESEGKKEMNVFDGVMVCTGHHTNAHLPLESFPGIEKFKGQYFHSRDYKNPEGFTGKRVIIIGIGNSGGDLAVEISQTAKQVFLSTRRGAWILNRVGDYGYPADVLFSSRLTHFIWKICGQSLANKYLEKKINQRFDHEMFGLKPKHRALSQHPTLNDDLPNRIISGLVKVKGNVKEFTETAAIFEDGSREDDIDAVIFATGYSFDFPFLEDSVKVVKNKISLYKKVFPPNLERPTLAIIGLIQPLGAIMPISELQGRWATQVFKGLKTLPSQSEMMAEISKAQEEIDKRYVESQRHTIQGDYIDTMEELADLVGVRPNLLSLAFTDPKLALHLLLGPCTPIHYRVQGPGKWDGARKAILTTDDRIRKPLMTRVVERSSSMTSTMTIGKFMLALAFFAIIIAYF

Liver microsome [3] = assay: Drug metabolism in human liver microsomes assessed as ER-879123 formation at 10 uM after 60 mins in presence of NADH and FMO1 and FMO3 substrate/inhibitor methimazole by LC-MS/MS method; format: ADME; settings: 1 h
[4] = biological target: T2, Flavin-containing monooxygenase 1 (Homo sapiens, UniProt Q01740); assay: Drug metabolism assessed as human recombinant FMO1-mediated ER-879123 formation at 10 uM after 60 mins by LC-MS/MS method in presence of NADPH; format: ADME; settings: recombinant enzyme, 1 h
T2 sequence (Q01740 whole entry): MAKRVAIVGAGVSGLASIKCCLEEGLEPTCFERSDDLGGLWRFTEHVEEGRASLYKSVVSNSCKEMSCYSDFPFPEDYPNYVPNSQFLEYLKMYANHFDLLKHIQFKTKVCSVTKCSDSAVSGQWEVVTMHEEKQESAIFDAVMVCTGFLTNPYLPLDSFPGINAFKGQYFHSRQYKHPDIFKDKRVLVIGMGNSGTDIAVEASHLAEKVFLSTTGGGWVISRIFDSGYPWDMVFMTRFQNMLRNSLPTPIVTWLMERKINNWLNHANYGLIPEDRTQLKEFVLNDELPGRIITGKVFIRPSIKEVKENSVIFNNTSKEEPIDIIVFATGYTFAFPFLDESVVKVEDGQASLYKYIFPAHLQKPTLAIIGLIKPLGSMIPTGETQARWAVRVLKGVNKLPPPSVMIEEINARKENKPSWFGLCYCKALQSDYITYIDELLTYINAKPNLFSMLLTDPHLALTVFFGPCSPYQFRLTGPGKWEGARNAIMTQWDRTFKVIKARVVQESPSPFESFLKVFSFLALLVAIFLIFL

[5] = biological target: T3, Flavin-containing monooxygenase 3 (Homo sapiens, UniProt P31513); assay: Drug metabolism assessed as human recombinant FMO3-mediated ER-879123 formation at 10 uM after 60 mins by LC-MS/MS method in presence of NADPH; format: ADME; settings: recombinant enzyme, 1 h
T3 sequence (P31513 whole entry): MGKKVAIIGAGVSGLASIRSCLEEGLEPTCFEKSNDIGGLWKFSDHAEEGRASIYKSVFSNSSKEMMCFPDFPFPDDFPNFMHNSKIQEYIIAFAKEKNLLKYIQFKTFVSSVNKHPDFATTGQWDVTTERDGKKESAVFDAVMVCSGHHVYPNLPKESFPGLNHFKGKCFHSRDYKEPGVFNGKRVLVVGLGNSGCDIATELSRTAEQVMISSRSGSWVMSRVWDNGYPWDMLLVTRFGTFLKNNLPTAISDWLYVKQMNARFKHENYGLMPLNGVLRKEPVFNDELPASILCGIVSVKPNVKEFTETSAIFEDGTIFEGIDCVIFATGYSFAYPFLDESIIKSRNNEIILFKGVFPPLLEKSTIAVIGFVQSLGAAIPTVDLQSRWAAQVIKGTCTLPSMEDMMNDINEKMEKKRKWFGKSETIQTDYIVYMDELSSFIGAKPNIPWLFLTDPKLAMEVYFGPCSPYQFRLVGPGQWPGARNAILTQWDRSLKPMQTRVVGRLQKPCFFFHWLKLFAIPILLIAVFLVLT

Liver microsome [6] = assay: Drug metabolism in human liver microsomes assessed as ER-879123 formation at 10 uM after 60 mins in presence of NADH by LC-MS/MS method; format: ADME; settings: 1 h
Liver microsome [7] = assay: Drug metabolism in 50 degC treated human liver microsomes assessed as ER-879123 formation at 10 uM after 60 mins in absence of NAD+ by LC-MS/MS method; format: ADME; settings: 1 h
[8] = biological target: T2, Flavin-containing monooxygenase 1; assay: Drug metabolism assessed as human recombinant FMO1-mediated ER-879123 formation in presence NADH at 10 uM after 60 mins by LC-MS/MS method; format: ADME; settings: recombinant enzyme, 1 h
Liver microsome [9] = assay: Drug metabolism in 50 degC treated dog liver microsomes assessed as ER-879123 formation at 10 uM after 60 mins in absence of NAD+ by LC-MS/MS method; format: ADME, Canis lupus familiaris; settings: 1 h
Liver microsome [10] = assay: Drug metabolism in human liver microsomes assessed as ER-879123 formation at 10 uM after 60 mins in presence of NADH and carboxylesterase inhibitor BNPP by LC-MS/MS method; format: ADME; settings: 1 h
Liver microsome [11] = assay: Drug metabolism in dog liver microsomes assessed as ER-879123 formation at 10 uM after 60 mins in presence of NADH by LC-MS/MS method; format: ADME, Canis lupus familiaris; settings: 1 h
Liver microsome [12] = assay: Drug metabolism in dog liver microsomes assessed as ER-879123 formation at 10 uM after 60 mins in presence of NADH and carboxylesterase inhibitor BNPP by LC-MS/MS method; format: ADME, Canis lupus familiaris; settings: 1 h
[13] = biological target: T3, Flavin-containing monooxygenase 3; assay: Drug metabolism assessed as human recombinant FMO3-mediated ER-879123 formation in presence NADH at 10 uM after 60 mins by LC-MS/MS method; format: ADME; settings: recombinant enzyme, 1 h
[14] = biological target: T1, Flavin-containing monooxygenase 5; assay: Drug metabolism assessed as human recombinant FMO5-mediated ER-879123 formation in presence NADH at 10 uM after 60 mins by LC-MS/MS method; format: ADME; settings: recombinant enzyme, 1 h

Drug metabolism (Liver microsome [1]): metabolite_detected | Drug metabolism [2]: metabolite_detected | Drug metabolism (Liver microsome [3]): metabolite_detected | Drug metabolism [4]: metabolite_not_detected | Drug metabolism [5]: metabolite_not_detected | Drug metabolism (Liver microsome [6]): metabolite_detected | Drug metabolism (Liver microsome [7]): metabolite_not_detected | Drug metabolism [8]: metabolite_not_detected | Drug metabolism (Liver microsome [9]): metabolite_not_detected | Drug metabolism (Liver microsome [10]): metabolite_not_detected | Drug metabolism (Liver microsome [11]): metabolite_detected | Drug metabolism (Liver microsome [12]): metabolite_not_detected | Drug metabolism [13]: metabolite_not_detected | Drug metabolism [14]: metabolite_detected
Structure (SMILES): O=C1CCN(Cc2ccc3c(c2)-c2n[nH]c(=O)c4cccc(c24)O3)CC1
